Laboratory results published in ChEMBL document CHEMBL1133438, “Potent acetylcholinesterase inhibitors: design, synthesis and structure-activity relationships of alkylene linked bis-galanthamine and galanthamine-galanthaminium salts” (Bioorg Med Chem Lett, 2000).

Biological target: Acetylcholinesterase (Electrophorus electricus, UniProt O42275)
Assay: Compound was assessed for in vitro inhibition of Acetylcholinesterase isolated from Electrophorus electricus

Chain of Acetylcholinesterase (O42275 whole entry): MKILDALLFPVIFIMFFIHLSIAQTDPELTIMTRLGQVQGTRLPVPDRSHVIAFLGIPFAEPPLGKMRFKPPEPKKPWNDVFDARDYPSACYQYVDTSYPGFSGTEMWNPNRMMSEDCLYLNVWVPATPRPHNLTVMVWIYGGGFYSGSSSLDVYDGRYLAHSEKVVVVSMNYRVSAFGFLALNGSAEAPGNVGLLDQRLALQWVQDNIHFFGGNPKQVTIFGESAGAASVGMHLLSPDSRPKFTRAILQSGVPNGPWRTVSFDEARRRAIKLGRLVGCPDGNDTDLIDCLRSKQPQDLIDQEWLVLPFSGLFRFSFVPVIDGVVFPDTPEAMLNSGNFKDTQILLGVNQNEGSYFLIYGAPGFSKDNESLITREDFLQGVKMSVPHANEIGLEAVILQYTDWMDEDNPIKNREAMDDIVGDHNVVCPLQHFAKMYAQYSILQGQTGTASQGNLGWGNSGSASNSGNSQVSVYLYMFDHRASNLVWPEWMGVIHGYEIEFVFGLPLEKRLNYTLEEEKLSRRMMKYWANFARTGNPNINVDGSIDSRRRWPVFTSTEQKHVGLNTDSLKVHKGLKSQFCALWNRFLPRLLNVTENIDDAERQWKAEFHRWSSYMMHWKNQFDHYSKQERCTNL

Row | Compound | IC50
1 | COc1ccc2c3c1OC1C[C@@H](O)C=C[C@@]31CCN(CCCCCCCCN1CC[C@@]34C=C[C@H](OC)C[C@@H]3Oc3c(OC)ccc(c34)C1)C2 (stereo partly specified) | 230 nM
2 | COc1ccc2c3c1OC1C[C@@H](O)C=C[C@@]31CC[N+](CCCCCCN1CC[C@@]34C=C[C@H](O)C[C@@H]3Oc3c(OC)ccc(c34)C1)=C2 (stereo partly specified) | 68 nM
3 | COc1ccc2c3c1OC1C[C@@H](O)C=C[C@@]31CCN(CCCCCCCCCCN1CC[C@@]34C=C[C@H](OC)C[C@@H]3Oc3c(OC)ccc(c34)C1)C2 (stereo partly specified) | 560 nM
4 | COc1ccc2c3c1OC1C[C@@H](O)C=C[C@@]31CC[N+](CCCCCCCCN1CC[C@@]34C=C[C@H](O)C[C@@H]3Oc3c(OC)ccc(c34)C1)=C2 (stereo partly specified) | 22 nM
5 | COc1ccc2c3c1OC1C[C@@H](O)C=C[C@@]31CC[N+](CCCCCCCCCCN1CC[C@@]34C=C[C@H](O)C[C@@H]3Oc3c(OC)ccc(c34)C1)=C2 (stereo partly specified) | 12 nM
6 | COc1ccc2c3c1OC1C[C@@H](O)C=C[C@@]31CCN(CCCCCCN1CC[C@@]34C=C[C@H](OC)C[C@@H]3Oc3c(OC)ccc(c34)C1)C2 (stereo partly specified) | 450 nM
